{"source": "patent US20250214999A1", "about": "“HETEROCYCLIC GLP-1 AGONISTS” (Gasherbrum Bio, Inc., priority 2020, published 2025)"}
{"target": "GLP-1 Receptor (Homo sapiens (Human), UniProt P43220)", "sequence (P43220 24-463)": "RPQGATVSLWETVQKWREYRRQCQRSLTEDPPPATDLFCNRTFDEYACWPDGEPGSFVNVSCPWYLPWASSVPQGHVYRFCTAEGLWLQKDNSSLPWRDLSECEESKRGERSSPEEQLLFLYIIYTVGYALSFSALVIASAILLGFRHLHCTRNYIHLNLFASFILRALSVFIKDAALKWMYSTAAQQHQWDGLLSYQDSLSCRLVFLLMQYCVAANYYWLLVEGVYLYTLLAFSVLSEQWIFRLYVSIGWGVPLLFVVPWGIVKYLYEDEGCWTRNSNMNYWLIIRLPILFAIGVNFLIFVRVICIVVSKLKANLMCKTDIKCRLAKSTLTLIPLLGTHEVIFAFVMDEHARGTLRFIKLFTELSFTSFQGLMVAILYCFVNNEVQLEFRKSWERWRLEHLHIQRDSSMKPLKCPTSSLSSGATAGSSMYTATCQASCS", "experiment": "GLP-1R agonist cAMP stimulation assay (HEK293/GLP1R/CRE-LUC cells)", "format": "cell-based", "conditions": "30 min incubation, read-out: GLP1R cAMP Stimulation DR: EC50", "description": "Activation of GLP-1 receptor is known to stimulate cyclic AMP (cAMP) production in cells which indicates primary coupling to the Gαs subunit of the G protein heterotrimeric complex.\nTo optimize functional activity directed toward Gαs coupling, a HEK293/CRELuc cell line developed by HDB stably expressing the GLP-1 Receptor was used. 200× concentration of compound working solutions were prepared (Agilent Technologies Bravo) with 1/2 log serial dilution in 384-well Echo LDV plate (Labcyte, Cat #LP-0200). 50 nL/well 200× concentration of compound working solutions were moved to 384-well white low volume plate (Greiner, Cat #784075) using Labcyte ECHO550. 1×10^5 cells/mL HEK293/GLP1R/CRE-LUC (HD Biosciences) cell suspensions prepared with assay buffer [DPBS containing 0.5 mM IBMX (Sigma,Cat #I5879) and 0.1% BSA (GENVIEW, Cat #FA016-100 g)], 10 uL cell suspensions were added to each well of previous generated assay plate which already contains 50 nl compound at 200× concentration using ThermoFisher Multidrop Combi (1000cells/well). Seal the plate and incubate at 37° C. with 5% CO2 for 30 min.\nAfter incubation the CAMP assay signal was generated using cAMP dynamic 2 Kit (Cisbio). 5 μL cAMP-d2 working solution was added to each well, followed with 5 μL Anti-cAMP antibody-cryptate working solution added to each well using ThermoFisher Multidrop Combi. Incubate at room temperature for 1 hour protected from light. Read the fluorescence at 665 and 615 nm with Reader PerkinElmer En Vision.", "units": {"EC50": "nM"}}
{"smiles": "O=C(O)c1ccc2nc(CN3CCC(c4cccc5c4OCC(c4ccc(Cl)cc4F)O5)CC3)n(C[C@@H]3CCO3)c2n1", "note": "(mixture of isomers) [Compound 104a, 2-((4-(2-(4-Chloro-2-fluorophenyl)-2,3-dihydrobenzo[b][1,4]dioxin-5-yl)piperidin-1-yl)methyl)-3-((S)-oxetan-2-ylmethyl)-3H-imidazo[4,5-b]pyridine-5-carboxylic acid]", "EC50": "0.2 to 20"}
{"smiles": "O=C(O)c1ccc2nc(CN3CCC(c4cccc5c4OC(c4ccc(Cl)cc4F)CO5)CC3)n(C[C@@H]3CCO3)c2n1", "note": "(single isomer, unassigned) [Compound 130b]", "EC50": "≤ 0.2"}
{"smiles": "O=C(O)c1ccc2nc(CN3CCC(c4cccc5c4OC(c4ccc(Cl)cc4F)CO5)CC3)n(C[C@@H]3CCO3)c2n1", "note": "(single isomer, unassigned) [Compound 130c]", "EC50": "0.2 to 20"}
{"smiles": "O=C(O)c1ccc2nc(Cc3ccc(-c4cccc5c4OCC(c4ccc(Cl)cc4F)O5)cc3)n(C[C@@H]3CCO3)c2n1", "note": "(stereo in doubt) [Compound 107a, 2-[[4-[2-(4-chloro-2-fluoro-phenyl)-2,3-dihydro-1,4-benzodioxin-5-yl]phenyl]methyl]-3-(oxetan-2-ylmethyl)imidazo[4,5-b]pyridine-5-carboxylic acid]", "EC50": "20 to 200"}
{"smiles": "O=C(O)c1ccc2nc(CN3CCC(c4cccc5c4OCC(c4ccccc4)O5)CC3)n(C[C@@H]3CCO3)c2n1", "note": "(stereo partly drawn) [Compound 101a, 3-((S)-oxetan-2-ylmethyl)-2-((4-(2-phenyl-2,3-dihydrobenzo[b][1,4]dioxin-5-yl)piperidin-1-yl)methyl)-3H-imidazo[4,5-b]pyridine-5-carboxylic acid]", "EC50": "0.2 to 20"}
{"smiles": "O=C(O)c1ccc2nc(CN3CCC(c4cccc5c4OCC(c4ccccc4)C5)CC3)n(C[C@@H]3CCO3)c2n1", "note": "(stereo partly drawn) [Compound 103a, 3-(((S)-oxetan-2-yl)methyl)-2-((4-(3-phenylchroman-8-yl)piperidin-1-yl)methyl)-3Himidazo[4,5-b]pyridine-5-carboxylic acid]", "EC50": "0.2 to 20"}
{"smiles": "O=C(O)c1ccc2nc(CN3CCC(c4cccc5c4OC[C@@H](c4ccc(Cl)cc4F)O5)CC3)n(C[C@@H]3CCO3)c2n1", "note": "[Compound 104b, 2-((4-((R)-2-(4-chloro-2-fluorophenyl)-2,3-dihydrobenzo[b][1,4]dioxin-5-yl)piperidin-1-yl)methyl)-3-(((S)-oxetan-2-yl)methyl)-3H-imidazo[4,5-b]pyridine-5-carboxylic acid]", "EC50": "0.2 to 20"}
{"smiles": "O=C(O)c1ccc2nc(CN3CCC(c4cccc5c4OC[C@H](c4ccc(Cl)cc4F)O5)CC3)n(C[C@@H]3CCO3)c2n1", "note": "[Compound 104c, 2-((4-((S)-2-(4-chloro-2-fluorophenyl)-2,3-dihydrobenzo[b][1,4]dioxin-5-yl)piperidin-1-yl)methyl)-3-(((S)-oxetan-2-yl)methyl)-3H-imidazo[4,5-b]pyridine-5-carboxylic acid]", "EC50": "20 to 200"}
{"smiles": "O=C(O)c1ccc2nc(CN3CCC(c4cccc5c4CCC(c4ccc(Cl)cc4F)O5)CC3)n(C[C@@H]3CCO3)c2n1", "note": "(stereo partly drawn) [Compound 105a, 2-((4-(2-(4-chloro-2-fluorophenyl)chroman-5-yl)piperidin-1-yl)methyl)-3-(((S)oxetan-2-yl)methyl)-3H-imidazo[4,5-b]pyridine-5-carboxylic acid]", "EC50": "> 200"}
{"smiles": "O=C(O)c1ccc2nc(CN3CCC(c4cccc5c4OCC(c4ccc(Cl)cc4F)C5)CC3)n(C[C@@H]3CCO3)c2n1", "note": "(stereo partly drawn) [Compound 106a, 2-((4-(3-(4-chloro-2-fluorophenyl)chroman-8-yl)piperidin-1-yl)methyl)-3-(((S)-oxetan-2-yl)methyl)-3H-imidazo[4,5-b]pyridine-5-carboxylic acid]", "EC50": "0.2 to 20"}
{"smiles": "O=C(O)c1ccc2nc(CN3CCN(c4cccc5c4OCC(c4ccc(Cl)cc4F)O5)CC3)n(C[C@@H]3CCO3)c2n1", "note": "(stereo partly drawn) [Compound 108a, 2-((4-(2-(4-chloro-2-fluorophenyl)-2,3-dihydrobenzo[b][1,4]dioxin-5-yl)piperazin-1-yl)methyl)-3-((S)-oxetan-2-ylmethyl)-3H-imidazo[4,5-b]pyridine-5-carboxylic acid]", "EC50": "0.2 to 20"}
